Converted amounts (≈) assume the structure as drawn. Numbered stars: 1 amine (or outer) side, 2 acyl side, 3 side chain; on linkers, the order of the positions; unused ones are H or OH. Bridge positions count the residues as written; N and C are the ends. Peptide text beside a SMILES is read from it. I, II: the chains in the order shown. OSiEt2O = CC[Si](CC)(O[*:1])O[*:2]
Legend:
[1] = system: IEC6 - mausartige Enterozyten; assay: MTT assay / EZ4U test, 4 days; type: cell-based; conditions: Rattus norvegicus, IEC-6; 200 - 12.5 µg/ml, 4 Tage; read-out: IC50 IEC6
Method: (§1) Die Silane 1, 5, 9, 10, 11, 13, 15, 16 wurden in Ethanol gelöst und in MTT Assays in einer anfänglichen Konzentration von 200 µg/ml (5 Lösungsschritte 200 - 12.5 µg/ml) verwendet. Die Platten wurde für eine Dauer.von 4 Tagen inkubiert und die Entwicklungsfähigkeit mithilfe des EZ4U Test bestimmt. Die IC50 Werte wurden ausgehend von Dosierungs-Reaktions-Linien berechnet Zelllinien: Colo 205 and HT29 - Kolonkarzinom; BxPC3 and MIAPaCa2 - Pankreaskrebs; CRO2B - karzinoid, A431 Epidermalkarzinom; normale Zellen: WI38 - humane embryonale Fibroblasten; NIH3T3 - mausartige Fibroblasten; IEC6 - mausartige Enterozyten.

HT29 - Kolonkarzinom = assay: MTT assay / EZ4U test, 4 days; type: cell-based; conditions: Homo sapiens, HT-29; 200 - 12.5 µg/ml, 4 Tage; read-out: IC50 HT29
Method: as §1

BxPC3 - Pankreaskrebs = assay: MTT assay / EZ4U test, 4 days; type: cell-based; conditions: Homo sapiens, BXPC-3; 200 - 12.5 µg/ml, 4 Tage; read-out: IC50 BxPC3
Method: as §1

MIAPaCa2 - Pankreaskrebs = assay: MTT assay / EZ4U test, 4 days; type: cell-based; conditions: Homo sapiens, MIA PaCa-2; 200 - 12.5 µg/ml, 4 Tage; read-out: IC50 MlAPaCa2
Method: as §1

CRO2B - karzinoid = assay: MTT assay / EZ4U test, 4 days; type: cell-based; conditions: 200 - 12.5 µg/ml, 4 Tage; read-out: IC50 CR02B
Method: as §1

[2] = system: WI38 - humane embryonale Fibroblasten; assay: MTT assay / EZ4U test, 4 days; type: cell-based; conditions: Homo sapiens, WI-38; 200 - 12.5 µg/ml, 4 Tage; read-out: IC50 WI38
Method: as §1

A431 Epidermalkarzinom = assay: MTT assay / EZ4U test, 4 days; type: cell-based; conditions: Homo sapiens, A-431; 200 - 12.5 µg/ml, 4 Tage; read-out: IC50 A431
Method: as §1

[3] = system: NIH3T3 - mausartige Fibroblasten; assay: MTT assay / EZ4U test, 4 days; type: cell-based; conditions: Mus musculus, NIH3T3; 200 - 12.5 µg/ml, 4 Tage; read-out: IC50 NIH3T3
Method: as §1

Normale Zellen = assay: Mean IC50 over all normal cell lines; type: cell-based; conditions: mean over normal cell lines; read-out: IC50 Normale Zellen (Durchschnitt ± SD)
Method: as §1
(§2) Mittelwerte-IC50 für alle Krebs- oder normalen Zelllinien: […]

Maus = assay: Pharmacological observation in the mouse (central, vegetative and toxic effects, acute toxicity); type: in vivo
Source text: Pharmakologische Untersuchungen an der Maus
Die Verbindungen wurden an der Maus auf zentrale, vegetative und toxische Effekte geprüft. Durch systemische Einzelbeobachtungen sind neben der akuten Toxizität (orienberende letale Dosis, oLD) zentrale und vegetative Wirkungen der Testsubstanzen, insbesondere Effekte auf die Motorik und das Reaktionsvermögen, die Haut- und Rektaltemperatur sowie auf die Pupillenmotorik erfasst worden. Die getesteten Dosierungen betrugen 5 •10^-4, 1 • 10^-3 und 5 • 10^-3 mol/kg Körpergewicht Letale Wirkungen konnten bei keiner der Verbindungen beobachtet werden. Die oLD lag für Di(tetradecanoyloxy)dimethylsilan und Di(octadecanoyloxy)dimethylsilan unter 1 • 10^-3 mol/kg Körpergewicht für alle übrigen Verbindungen unter 5 • 10^-3 mollkg Körpergewicht.

Krebszellen = assay: Mean IC50 over all cancer cell lines; type: cell-based; conditions: mean over cancer cell lines; read-out: IC50 Krebszellen (Durchschnitt ± SD)
Method: as §1, §2

Colo205 Kolonkarzinom = assay: subG1 apoptotic fraction, propidium iodide, flow cytometry; type: cell-based; conditions: 50 µg/ml, 4 Tage
Method: (§3) Die Zellen (IEC6 mausartige Enterozyten; Panc1 Pankreaskrebszellen; Colo205 Kolonkarzinom) wurden mit 50 µg/ml Silanen inkubiert und nach 4-tägiger Aussetzung auf DNA eingefärbt (Propidiumiodid). Die SubG1 Zellteilung wurde mittels Durchflusscytometrie bestimmt.

[4] = system: IEC6 mausartige Enterozyten; assay: as above; type: cell-based; conditions: 50 µg/ml, 4 Tage
Method: as §3

[5] = system: Panc1 Pankreaskrebszellen; assay: as above; type: cell-based; conditions: 50 µg/ml, 4 Tage
Method: as §3

Osteosarkome = assay: Effect on osteosarcomas
T47D (Brustkrebs) = assay: MTT test, triplicate, two-fold dilutions; type: cell-based; conditions: Homo sapiens, T47D; up to 500 µg/ml; read-out: IC50 T47D
Method: (§4) Die Silan wurden in Ethanol aufgelöst und in Zellkulturmedien in Konzentrationen von bis zu 500 µg/ml resuspendiert. Es wurden MTT Tests in dreifacher Ausführung durchgeführt, für welche doppelte Lösungen (7 Schritte) und colo205 (Kofon-Karzinom), BxPC3 (pankreatisches Adenokarzinom) sowie T47D (Brustkrebs) benutzt wurden.

[6] = system: BxPC3 (pankreatisches Adenokarzinom); assay: MTT test, triplicate, two-fold dilutions; type: cell-based; conditions: Homo sapiens, BXPC-3; up to 500 µg/ml; read-out: IC50 BxPC3
Method: as §4

colo205 (Kofon-Karzinom) = assay: MTT test, triplicate, two-fold dilutions; type: cell-based; conditions: Homo sapiens, COLO 205; up to 500 µg/ml; read-out: IC50 Colo205
Method: as §4

Colo 205 - Kolonkarzinom = assay: MTT assay / EZ4U test, 4 days; type: cell-based; conditions: Homo sapiens, COLO 205; 200 - 12.5 µg/ml, 4 Tage; read-out: IC50 Colo205
Method: as §1

[7] = system: Kälber-Aortenendothelzellinie BKEz-7; assay: tissue or blood; type: cell-based
Source text: Prüfung auf zytotoxisches Potential an Kälber-Aortenendothelzellinie BKEz-7
Als Marker für eine zytotoxische Wirkung wird bei Zellen der charakterisierten Kälber-Aortenendothelzellinie BKEz-7 die Hemmkonzentration ermittelt, bei der eine 50%-ige Hemmung der Zellproliferation erfolgt (im Vergleich zu Kontrollkulturen ohne Zusatz eines Zellinhibitors). Die resultierende Reduzierung der Zellzahl um 50% wird als IC 50 ausgedrückt. Die getesteten Silanverbindungen wurden als Suspensionen auf die Kulturen gegeben und 48 Stunden bei 37°C inkubiert. Zusätzlich erfolgten morphologische Kontrollen und Vitalitätsbestimmungen mittels dem Neutralrot-Test. Mit Ausnahme des Di(dodecanoyloxy)dimethylsilans standen alle Ergebnisse der morphologischen Untersuchungen in guter Übereinstimmung. […]

Basalzellkarzinome = assay: Effect on basal cell carcinomas
Medulloblastome = assay: Effect on medulloblastomas

Row | Compound | IC50 [1] [µg/mL] | IC50 (HT29 - Kolonkarzinom) [µg/mL] | IC50 (BxPC3 - Pankreaskrebs) [µg/mL] | IC50 (MIAPaCa2 - Pankreaskrebs) [µg/mL] | IC50 (CRO2B - karzinoid) [µg/mL] | IC50 [2] [µg/mL] | IC50 (A431 Epidermalkarzinom) [µg/mL] | IC50 [3] [µg/mL] | IC50 (Normale Zellen) [µg/mL] | zentrale, vegetative und toxische Effekte (Verhaltensänderungen) (Maus; 1•10^-3 mol/kg) | zentrale, vegetative und toxische Effekte (Verhaltensänderungen) (Maus; 5•10^-3 mol/kg) | zentrale, vegetative und toxische Effekte (Verhaltensänderungen) (Maus; 5•10^-4 mol/kg) | IC50 (Krebszellen) [µg/mL] | subG1 apoptotische Zellteilung Colo205 (Colo205 Kolonkarzinom) | subG1 apoptotische Zellteilung IEC6 [4] | subG1 apoptotische Zellteilung Panc1 [5] | IC50 (T47D (Brustkrebs)) [µg/mL] | IC50 [6] [µg/mL] | IC50 (colo205 (Kofon-Karzinom)) [µg/mL] | Wirkung gegen Medulloblastome (Medulloblastome) | also measured
1 | CCCCCCCCCCCCCCCC(=O)O[Si](C)(C)OC(=O)CCCCCCCCCCCCCCC [Si16, Di (hexadecanoyloxy) dimethylsilan] | 17.2 (≈ 30.2 µM) | 34.4 (≈ 60.5 µM) | 12.5 (≈ 22 µM) | 400 (≈ 703 µM) | 31.5 (≈ 55.4 µM) | 36 (≈ 63.3 µM) | 34.5 (≈ 60.6 µM) | 42.5 (≈ 74.7 µM) | 31.9 (≈ 56.1 µM) | keine Verhaltensänderungen | Ataxie, Piloerektion, Grifistärkesenkung | keine Verhaltensänderungen | 28.2 (≈ 49.6 µM) | 3,55 ± 0,07 | 2,45±0,21 | 22,2 ± 1,6 | 15 (≈ 26.4 µM) | 45 (≈ 79.1 µM) | 500 (≈ 879 µM) |  | Wirkung auf Osteosarkome (Osteosarkome): zeigen eine Wirkung
2 | CCCCCCCCCCCCCC(=O)O[Si](OC(=O)CCCCCCCCCCCCC)(c1ccccc1)c1ccccc1 [Si15, Di (tetradecanoyloxy) diphenylsilan] | 19.1 (≈ 30 µM) | 39.4 (≈ 61.8 µM) | 33.8 (≈ 53.1 µM) | 37 (≈ 58.1 µM) | 12.5 (≈ 19.6 µM) | 35 (≈ 54.9 µM) | 34.5 (≈ 54.2 µM) | 29.4 (≈ 46.2 µM) | 27.8 (≈ 43.6 µM) | Ataxie, Hyper-aktivität | schwache Ataxie, Piloerektion | keine Verhaltensänderungen | 30 (≈ 47.1 µM) | 37,6 ± 0,21 | 2,9 ± 0,42 | 48,6 ± 0,6 | 15 (≈ 23.5 µM) | 15 (≈ 23.5 µM) | 62 (≈ 97.3 µM) |  | IC50 (Colo 205 - Kolonkarzinom): 30 µg/mL (≈ 47.1 µM); Bedenkliche Toxizität [7]: -; IC50 ([7]; suspensions, 48 Stunden bei 37°C): 46 µM; Wirkung auf Basalzellkarzinome (Basalzellkarzinome): zeigen eine Wirkung
3 | C[Si](C)(OC(=O)CNC(=O)CNC(=O)CNC(=O)CNC(=O)CNC(=O)CNC(=O)CNC(=O)CNC(=O)CN)OC(=O)CNC(=O)CNC(=O)CNC(=O)CNC(=O)CNC(=O)CNC(=O)CNC(=O)CNC(=O)CN [Dimethyl bis(nonaglycyl)silylester] |  |  |  |  |  |  |  |  |  |  |  |  |  |  |  |  |  |  |  | zeigen eine Wirkung | 
4 | CC[Si](CC)(OC(=O)[C@H](Cc1ccccc1)NC(=O)[C@H](Cc1ccccc1)NC(=O)[C@H](Cc1ccccc1)NC(=O)[C@H](Cc1ccccc1)NC(=O)[C@H](Cc1ccccc1)NC(=O)[C@H](Cc1ccccc1)NC(=O)[C@H](Cc1ccccc1)NC(=O)[C@H](Cc1ccccc1)NC(=O)[C@@H](N)Cc1ccccc1)OC(=O)[C@H](Cc1ccccc1)NC(=O)[C@H](Cc1ccccc1)NC(=O)[C@H](Cc1ccccc1)NC(=O)[C@H](Cc1ccccc1)NC(=O)[C@H](Cc1ccccc1)NC(=O)[C@H](Cc1ccccc1)NC(=O)[C@H](Cc1ccccc1)NC(=O)[C@H](Cc1ccccc1)NC(=O)[C@@H](N)Cc1ccccc1 [Diethyl bis(nonaphenylalanyl)silylester] (I: H-FFFFFFFFF / II: H-FFFFFFFFF; linker I:C-II:C via OSiEt2O) |  |  |  |  |  |  |  |  |  |  |  |  |  |  |  |  |  |  |  | zeigen eine Wirkung | 
